# Test results from US12540120B2, “Herbicidal compounds” (SYNGENTA CROP PROTECTION AG, priority 2019, dated 2026).
# What was measured:
# Assay type in all cases: in vivo
# [1] = system: Zea Mays (ZEAMX); assay: B6 Pre-Emergence Efficacy—Test 3; conditions: pre-emergence application, 250 g/ha, evaluated after 13 days (Test 3)
# Procedure: (§1) B6 Pre-Emergence Efficacy—Test 3 Seeds of a variety of test species were sown in standard soil in pots: Amaranthus retoflexus (AMARE), Setaria faberi (SETFA), Echinochloa crus-galli (ECHCG), Ipomoea hederacea (IPOHE), Zea Mays (ZEAMX), Abutilon theophrasti (ABUTH). After cultivation for one day (pre-emergence) under controlled conditions in a glasshouse (at 24/16° C., day/night; 14 hours light; 65% humidity), the plants were sprayed with an aqueous spray solution derived from the formulation of the technical active ingredient in acetone/water (50:50) solution containing 0.5% Tween 20 (polyoxyethelyene sorbitan monolaurate, CAS RN 9005-64-5). Compounds are applied at 250 g/ha. The test plants were then grown in a glasshouse under controlled conditions (at 24/16° C., day/night; 14 hours light; 65% humidity) and watered twice daily. After 13 days, the test is evaluated for the percentage damage caused to the plant. The biological activities are assessed on a five point scale (5=80-100%; 4=60-79%; 3=40-59%; 2=20-39%; 1=0-19%). A blank value in the table is indicative that the compound was not tested on that species.
# [2] = system: Ipomoea hederacea (IPOHE); assay: B6 Pre-Emergence Efficacy—Test 3; conditions: pre-emergence application, 250 g/ha, evaluated after 13 days (Test 3)
# Procedure: as §1
# [3] = system: Echinochloa crus-galli (ECHCG); assay: B6 Pre-Emergence Efficacy—Test 3; conditions: pre-emergence application, 250 g/ha, evaluated after 13 days (Test 3)
# Procedure: as §1
# [4] = system: Setaria faberi (SETFA); assay: B6 Pre-Emergence Efficacy—Test 3; conditions: pre-emergence application, 250 g/ha, evaluated after 13 days (Test 3)
# Procedure: as §1
# [5] = system: Abutilon theophrasti (ABUTH); assay: B6 Pre-Emergence Efficacy—Test 3; conditions: pre-emergence application, 250 g/ha, evaluated after 13 days (Test 3)
# Procedure: as §1
# [6] = system: Amaranthus retoflexus (AMARE); assay: B6 Pre-Emergence Efficacy—Test 3; conditions: pre-emergence application, 250 g/ha, evaluated after 13 days (Test 3)
# Procedure: as §1
# [7] = system: Zea Mays (ZEAMX); assay: B3 Post-Emergence Efficacy—Test 3; conditions: post-emergence application, 250 g/ha, evaluated after 13 days (Test 3)
# Procedure: (§2) B3 Post-Emergence Efficacy—Test 3 Seeds of a variety of test species are sown in standard soil in pots:—Amaranthus retoflexus (AMARE), Setaria faberi (SETFA), Echinochloa crus-galli (ECHCG), Ipomoea hederacea (IPOHE), Zea Mays (ZEAMX), Abutilon theophrasti (ABUTH). After 8 days cultivation (post-emergence) under controlled conditions in a glasshouse (at 24/16° C., day/night; 14 hours light; 65% humidity), the plants are sprayed with an aqueous spray solution derived from the formulation of the technical active ingredient in acetone/water (50:50) solution containing 0.5% Tween 20 (polyoxyethylene sorbitan monolaurate, CAS RN 9005-64-5). Compounds are applied at 250 g/ha. The test plants are then grown in a glasshouse under controlled conditions in a glasshouse (at 24/16° C., day/night; 14 hours light; 65% humidity) and watered twice daily. After 13 days, the test is evaluated for the percentage damage caused to the plant. The biological activities are assessed on a five point scale (5=80-100%; 4=60-79%; 3=40-59%; 2=20-39%; 1=0-19%). A blank value in the table is indicative that the compound was not tested on that species.
# [8] = system: Ipomoea hederacea (IPOHE); assay: B3 Post-Emergence Efficacy—Test 3; conditions: post-emergence application, 250 g/ha, evaluated after 13 days (Test 3)
# Procedure: as §2
# [9] = system: Echinochloa crus-galli (ECHCG); assay: B3 Post-Emergence Efficacy—Test 3; conditions: post-emergence application, 250 g/ha, evaluated after 13 days (Test 3)
# Procedure: as §2
# [10] = system: Setaria faberi (SETFA); assay: B3 Post-Emergence Efficacy—Test 3; conditions: post-emergence application, 250 g/ha, evaluated after 13 days (Test 3)
# Procedure: as §2
# [11] = system: Abutilon theophrasti (ABUTH); assay: B3 Post-Emergence Efficacy—Test 3; conditions: post-emergence application, 250 g/ha, evaluated after 13 days (Test 3)
# Procedure: as §2
# [12] = system: Amaranthus retoflexus (AMARE); assay: B3 Post-Emergence Efficacy—Test 3; conditions: post-emergence application, 250 g/ha, evaluated after 13 days (Test 3)
# Procedure: as §2
SMILES,"percentage damage caused to the plant, five point scale, ZEAMX [1]","percentage damage caused to the plant, five point scale, IPOHE [2]","percentage damage caused to the plant, five point scale, ECHCG [3]","percentage damage caused to the plant, five point scale, SETFA [4]","percentage damage caused to the plant, five point scale, ABUTH [5]","percentage damage caused to the plant, five point scale, AMARE [6]","percentage damage caused to the plant, five point scale, ZEAMX [7]","percentage damage caused to the plant, five point scale, IPOHE [8]","percentage damage caused to the plant, five point scale, ECHCG [9]","percentage damage caused to the plant, five point scale, SETFA [10]","percentage damage caused to the plant, five point scale, ABUTH [11]","percentage damage caused to the plant, five point scale, AMARE [12]"
Cc1nn(C)c(=O)c(-c2c(F)ccc(Cl)c2CCc2ccc(CSC(C)C)cc2)c1O [Compound A-1.389],4 (4=60-79%),5 (5=80-100%),5 (5=80-100%),5 (5=80-100%),3 (3=40-59%),5 (5=80-100%),5 (5=80-100%),5 (5=80-100%),5 (5=80-100%),5 (5=80-100%),4 (4=60-79%),4 (4=60-79%)
"Cc1nn(C)c(=O)c(-c2c(F)ccc(C3CC3)c2CCc2ccnc(F)c2)c1O [Compound C-1.013, 4-[3-cyclopropyl-6-fluoro-2-[2-(2-fluoro-4-pyridyl)ethyl]phenyl]-5-hydroxy-2,6-dimethyl-pyridazin-3-one]",4 (4=60-79%),5 (5=80-100%),5 (5=80-100%),5 (5=80-100%),5 (5=80-100%),5 (5=80-100%),4 (4=60-79%),4 (4=60-79%),5 (5=80-100%),4 (4=60-79%),4 (4=60-79%),5 (5=80-100%)
